pIC50: −log10 of the molar value. Read-outs that look alike come from different tables or passages of the source.
Experiments:
[1] = In vitro metabolic stability in rat liver microsome; format: in vitro ADME; conditions: rat liver microsomes
Description: (§1) 1900 mg MgCl2 was dissolved into a final volume of 400 mL ultra-pure water.
(§2) 17.42 g K2HPO4 and 13.65 g KH2PO4 were dissolved into a final volume of 1000 mL ultra-pure water, respectively. K2HPO4 and KH2PO4 were mixed to prepare 100 mM potassium phosphate (PBS) buffer. The pH value of the final solution was adjusted to pH 7.30±0.10.
(§3) Cold ACN (including 10 ng/mL Labetalol and 10 ng/mL Glibenclamid) was stored at 4° C.
(§4) Working Solution Preparation:
(§5) Verapamil (positive control) and test compound stock solution were diluted into a concentration of 50 μM and 200 μM respectively, using MeOH/ACN/H2O solution (1:1:2, v/v/v).
(§6) 1) 40 μL MgCl2 and 306 μL PBS were added to 96 plate wells (blank, compound wells, compounds without NADPH wells)
(§7) 2) 4 μL compound working solution was added to above wells (blank: 4 μL PBS buffer) (Note: the volume of DMSO in final incubation system ≤0.5%)
(§8) 3) 10 μL microsomes (20 mg/mL) was added in each well. The mixture was warmed up for 10 minutes at 37.0° C.
(§9) 4) 40 μL 10 mM NADPH working solution was added to start reaction. The total volume was 400 μL.
(§10) 5) Aliquots of 50 μL samples were taken from the reaction solution at 0, 5, 15, 45 min. The reaction solutions were stopped by the addition of 400 μL stop solution.
(§11) 6) The sampling plates were shaked for approx. 5 min.
(§12) 7) Samples were centrifuged at 3200 rcf for 10 min. then transferred 50 μL to a new plate dilute with 200 μL H2O for LC/MS/MS analysis.
(§13) Use equation of first order kinetics to calculate t1/2 and CL: […]
(§14) Where k represents elimination constant, which is calculated from a log linear plot of % Remaining versus time. t1/2 represents the half-life. Cprotein is the concentration of liver microsomes.

[2] = In vitro metabolic stability in human liver microsome; format: in vitro ADME; conditions: human liver microsomes
Description: as §1, §2, §3, §4, §5, §6, §7, §8, §9, §10, §11, §12, §13, §14

[3] = tested on: lung cancer NCI-H358 cell; experiment: Cell proliferation assay (CellTiter-Glo), NCI-H358; format: cell-based; conditions: Homo sapiens, NCI-H358, 96 hrs, CTG, read-out: Compound on NCI-H358 cell IC50
Description: (§15) The effects of the compounds on the proliferation of leukemia MV-4-11 cell and lung cancer NCI-H358 cell were evaluated by in vitro cell test. The assay used in this study was the CELL TITER-GLO (CTG) luminescence assay, which can detect the number of living cells by quantitative determination of ATP. Because ATP is involved in a variety of enzymatic reactions in vivo and is an indicator of the metabolism of living cells, its content can directly reflects the number and state of cells. During the experiment, Celltiter-Glo™ reagent was added to the cell culture medium to measure the luminescence value. The luminescence value was proportional to the amount of ATP, which in turn was positively correlated with the number of living cells. Therefore, ATP content can be used to detect cell viability.
A bottle of NCI-H358 cells in logarithmic growth phase was taken, the cells were digested and resuspend, counted, and then the cell density was adjusted. After that, the cells were inoculated into a 96-well Ultra-Low Attachment Microplate (Corning #3474), 2000 cells were inoculated in each well, and the well plate was placed in an incubator at 37° C. and 5% CO2, and the compounds of the invention were added for conducting.
(§16) An appropriate amount of the compound of the invention was taken for cell treatment, and the final concentration of the compound from high to low was 1000 nM, 333.3 nM, 111.1 nM, 37.04 nM, 12.35 nM, 4.115 nM, 1.372 nm, 0.4572 nM, 0.1524 nM, 0 nM, respectively. The orifice plate was cultured in an incubator at 37° C. and 5% CO2. Only adding medium without adding cell hole was set as blank group. Compound concentration of 0 nM group was zero control group.
NCI-H358 cells were cultured for 96 hrs, then 50 μL CellTiter-Glo® Luminescent cell viability assay solution was added to each well, and the cells were gently shaken for 2 mins, and incubated at room temperature for 10 mins. The cell reaction system was transferred to 96-well Microplate (Corning #3917). The detection values of each well were read on the multi-functional microplate reader.
(§17) The inhibition rate is calculated according to the luminous value reading,
(§18) Inhibition rate %=(1−(administration group value−blank group value)/(control group value−blank group value)*100
(§19) The log (inhibitor) vs. response variable slope of GraphPad Prism was used to fit the dose-response curve and calculate the IC50 of compounds inhibiting cell proliferation.

leukemia MV-4-11 cell = experiment: Cell proliferation assay (CellTiter-Glo), MV-4-11; format: cell-based; conditions: Homo sapiens, MV4-11, MV-4-11, 120 hrs, CTG, read-out: Compound on MV-4-11 cell IC50
Description: as §15
A bottle of MV-4-11 cells in logarithmic growth phase was taken, the cells were collected, centrifuged, resuspend, counted, and then inoculated into 96-well Microplate (Corning #3917), with 4000 cells inoculated in each well. The plates were placed in an incubator at 37° C. and 5% CO2 for 24 hrs culture, and the compounds of the invention were added for conducting.
as §16
After cultured for 120 hrs, MV-4-11 cells were added with 50 μL CellTiter-Glo® Luminescent cell viability assay solution in each well, gently shaken for 2 mins, and incubated at room temperature for 10 mins. The detection values of each well were read on the multi-functional microplate reader.
as §17, §18, §19

SMILES | CLint Rat [1] | CLint Human [2] | pIC50 ([3]; class symbols) | pIC50 (leukemia MV-4-11 cell; class symbols) | pIC50 ([3]; numeric values) | pIC50 (leukemia MV-4-11 cell; numeric values)
N[C@@H]1c2ccccc2CC12CCN(c1nc3[nH]nc(C4(c5ccc6c(c5)OCO6)CC4)c3c(=O)[nH]1)CC2 [Example 34, (S)-6-(1-amino-1,3-dihydrospiro[indene-2,4′-piperidin]-1′-yl)-3-(1-(benzo[d][1,3]dioxol-5-yl)cyclopropyl)-1,5-dihydro-4H-pyrazolo[3,4-d]pyrimidin-4-one] | 19.1 μL/min/mg proteins | 16.5 μL/min/mg proteins | ≥ 7.70 | ≥ 7.70 | – | –
N[C@@H]1c2ccccc2CC12CCN(c1nc3[nH]nc(C4(c5ccc(F)cc5)CC4)c3c(=O)[nH]1)CC2 [Example 11, (S)-6-(1-amino-1,3-dihydrospiro[indene-2,4′-piperidin]-1′-yl)-3-(1-(4-fluorophenyl)cyclopropyl)-1,5-dihydro-4H-pyrazolo[3,4-d]pyrimidin-4-one] | 6.6 μL/min/mg proteins | 8.6 μL/min/mg proteins | – | – | 8.68 | 8.92
N[C@@H]1c2ccccc2CC12CCN(c1nc3[nH]nc(C4(c5cccc(C(F)(F)F)c5)CC4)c3c(=O)[nH]1)CC2 [Example 8, (S)-6-(1-amino-1,3-dihydrospiro[indene-2,4′-piperidin]-1′-yl)-3-(1-(3-(trifluoromethyl)plienyl)cyclo-propyl)-1,5-dihydro-4H-pyrazolo[3,4-d]pyrimidin-4-one] | 11.6 μL/min/mg proteins | 9.2 μL/min/mg proteins | – | – | 8.77 | 8.21
N[C@@H]1c2ccccc2CC12CCN(c1nc3[nH]nc(C4(c5cccc(F)c5)CC4)c3c(=O)[nH]1)CC2 [Example 6, (S)-6-(1-amino-1,3-dihydrospiro[indene-2,4′-piperidin]-1′-yl)-3-(1-(3-fluorophenyl)cyclopropyl)-1,5-dihydro-4H-pyrazolo[3,4-d]pyrimidin-4-one] | 11.2 μL/min/mg proteins | 19.5 μL/min/mg proteins | – | – | 8.07 | 8.19
Cn1c(N2CCC3(CC2)Cc2ccccc2[C@H]3N)nc2[nH]nc(C3(c4ccccc4)CC3)c2c1=O [Example 1] | 34.7 μL/min/mg proteins | 95.2 μL/min/mg proteins | – | ≥ 7.70 | – | –
N[C@@H]1c2ccccc2CC12CCN(c1nc3[nH]nc(C4(c5ccccc5)CC4(F)F)c3c(=O)[nH]1)CC2 (stereo partly drawn) [Example 9, 6-((S)-1-amino-1,3-dihydrospiro[indene-2,4′-piperidin]-1′-yl)-3-(2,2-difluoro-1-phenylcyclopropyl)-1,5-dihydro-4H-pyrazolo[3,4-d]pyrimidin-4-one] | 10.5 μL/min/mg proteins | 16.9 μL/min/mg proteins | ≥ 7.70 | ≥ 7.70 | – | –
N[C@@H]1c2ccccc2CC12CCN(c1nc3[nH]nc(C4(c5ccc6c(c5)OC(F)(F)O6)CC4)c3c(=O)[nH]1)CC2 [Example 13, (S)-6-(1-amino-1,3-dihydrospiro[indene-2,4′-piperidin]-1′-yl)-3-(1-(2,2-difluorobenzo[d][1,3]dioxol-5-yl)cyclopropyl)-1,5-dihydro-4H-pyrazolo[3,4-d]pyrimidin-4-one] | 14.3 μL/min/mg proteins | 9.8 μL/min/mg proteins | ≥ 7.70 | ≥ 7.70 | – | –
N[C@@H]1c2ccccc2CC12CCN(c1nc3[nH]nc(C4(c5cccs5)CC4)c3c(=O)[nH]1)CC2 [Example 24, (S)-6-(1-amino-1,3-dihydrospiro[indene-2,4′-piperidin]-1′-yl)-3-(1-(thiophen-2-yl)cyclopropyl)-1,5-dihydro-4H-pyrazolo[3,4-d]pyrimidin-4-one] | – | – | ≥ 7.70 | ≥ 7.70 | – | –
N[C@@H]1c2ccccc2CC12CCN(c1nc3[nH]nc(C4(c5ccc(Cl)c(Cl)c5)CC4)c3c(=O)[nH]1)CC2 [Example 21, (S)-6-(1-amino-1,3-dihydrospiro[indene-2,4′-piperidin]-1′-yl)-3-(1-(3,4-dichlorophenyl)cyclopropyl)-1,5-dihydro-4H-pyrazolo[3,4-d]pyrimidin-4-one] | 3.8 μL/min/mg proteins | 10.4 μL/min/mg proteins | ≥ 7.70 | ≥ 7.70 | – | –

The next lines start with the values.

CLint Rat [1] | CLint Human [2] | pIC50 ([3]; class symbols) | pIC50 (leukemia MV-4-11 cell; class symbols) | pIC50 ([3]; numeric values) | pIC50 (leukemia MV-4-11 cell; numeric values) | SMILES
6.6 μL/min/mg proteins | 10.4 μL/min/mg proteins | – | – | – | – | N[C@@H]1c2ccccc2CC12CCN(c1nc3[nH]nc(C4(c5ccc(O)cc5)CC4)c3c(=O)[nH]1)CC2 [Example 234, (S)-6-(1-amino-1,3-dihydrospiro[indene-2,4′-piperidin]-1′-yl)-3-(1-(4-hydroxyphenyl)cyclopropyl)-1,5-dihydro-4H-pyrazolo[3,4-d]pyrimidin-4-one]
15.0 μL/min/mg proteins | 11.8 μL/min/mg proteins | ≥ 7.70 | ≥ 7.70 | – | – | N[C@@H]1c2ccccc2CC12CCN(c1nc3[nH]nc(C4(c5csnn5)CC4)c3c(=O)[nH]1)CC2 [Example 240, (S)-3-(1-(1,2,3-thiadiazol-4-yl)cyclopropyl)-6-(1-amino-1,3-dihydrospiro[indene-2,4′-piperidin]-1′-yl)-1,5-dihydro-4H-pyrazolo[3,4-d]pyrimidin-4-one]
– | – | ≥ 7.70 | ≥ 7.70 | – | – | N#Cc1ccc(C2(c3n[nH]c4nc(N5CCC6(CC5)Cc5ccccc5[C@H]6N)[nH]c(=O)c34)CC2)cc1 [Example 237, (S)-4-(1-(6-(1-amino-1,3-dihydrospiro[indene-2,4′-piperidin]-1′-yl)-4-oxo-4,5-dihydro-1H-pyrazolo[3,4-d]pyrimidin-3-yl)cyclopropyl)benzonitrile]
– | – | < 7.22 | 7.22 to 7.70 | – | – | N[C@@H]1c2ccccc2CC12CCN(c1nc3[nH]nc(C4(c5ccccc5)COC4)c3c(=O)[nH]1)CC2 [Example 96, (S)-6-(1-amino-1,3-dihydrospiro[indene-2,4′-piperidin]-1′-yl)-3-(3-phenyloxetan-3-yl)-1,5-dihydro-4H-pyrazolo[3,4-d]pyrimidin-4-one]
3.2 μL/min/mg proteins | 9.2 μL/min/mg proteins | – | – | – | – | Nc1ccc(C2(c3n[nH]c4nc(N5CCC6(CC5)Cc5ccccc5[C@H]6N)[nH]c(=O)c34)CC2)cc1 [Example 230, (S)-6-(1-amino-1,3-dihydrospiro[indene-2,4′-piperidin]-1′-yl)-3-(1-(4-aminophenyl)cyclopropyl)-1,5-dihydro-4H-pyrazolo[3,4-d]pyrimidin-4-one]

From US20230192705A1, “SHP2 INHIBITORS, COMPOSITIONS AND USES THEREOF” (Betta Pharmaceuticals Co., Ltd, priority 2020, published 2023)
